What was measured:
[1] = tested on: Monocotyledonous and dicotyledonous weed; assay: Post-emergence test experiment, weed control effect (Table 2); format: in vivo; set-up: key to weed control effect, Setaria viridis (level) / weed control effect, Rorippa indica (level) / weed control effect, Abutilon theophrasti (level) / weed control effect, Echinochloa crus-galli (level) / weed control effect, Digitaria sanguinalis (level): Level 10: completely dead; Level 9: above 90% growth inhibition rate; Level 8: above 80% growth inhibition rate; Level 7: above 70% growth inhibition rate; Level 6: above 60% growth inhibition rate; Level 5: above 50% growth inhibition rate; Level 4: above 30% growth inhibition rate; Level 3: above 20% growth inhibition rate; Level 2: above 10% growth inhibition rate; Level 1: above 1-10% growth inhibition rate; Level 0: no effect; conditions: 30 g/ha, 3 weeks after spraying, greenhouse
Method in brief: (§1)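 Compounds, dissolved in acetone, mixed with Tween 80 and diluted in water, were sprayed post-emergence onto greenhouse-grown weeds and crops at the 2-3 leaf stage (2-3 weeks post-sowing). Plants then grown 3 more weeks in the greenhouse before evaluation.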

[2] = tested on: main crop (wheat, corn, rice, soybean, cotton, oilseed, millet and sorghum); assay: Post-emergence test experiment, main crops (Table 2); format: in vivo; set-up: key: Level 10: completely dead; Level 9: above 90% growth inhibition rate; Level 8: above 80% growth inhibition rate; Level 7: above 70% growth inhibition rate; Level 6: above 60% growth inhibition rate; Level 5: above 50% growth inhibition rate; Level 4: above 30% growth inhibition rate; Level 3: above 20% growth inhibition rate; Level 2: above 10% growth inhibition rate; Level 1: above 1-10% growth inhibition rate; Level 0: no effect; conditions: 30 g/ha, 3 weeks after spraying, greenhouse
Method in brief: as §1

C#CCOCc1c(S(C)(=O)=O)ccc(C(=O)c2cnn(C)c2OC(=O)c2cnn(C)c2OCC)c1Cl [Compound 58]
weed control effect, Abutilon theophrasti (level) [1]: 7 (Level 7: above 70% growth inhibition rate) | weed control effect, Bidens pilosa (level) [1]: 7 (Level 7: above 70% growth inhibition rate) | weed control effect, Digitaria sanguinalis (level) [1]: 7 (Level 7: above 70% growth inhibition rate) | weed control effect, Echinochloa crus-galli (level) [1]: 10 | weed control effect, Rorippa indica (level) [1]: 10 | weed control effect, Setaria viridis (level) [1]: 9 (Level 9: above 90% growth inhibition rate) | effect on crop, corn (level) [2]: 0 | effect on crop, rice (level) [2]: 3 (Level 3: above 20% growth inhibition rate) | effect on crop, wheat (level) [2]: 0

CCOCCOCc1c(S(C)(=O)=O)ccc(C(=O)c2cnn(C)c2OC(=O)c2cnn(C)c2OCC)c1Cl [Compound 59]
weed control effect, Abutilon theophrasti (level) [1]: 7 (Level 7: above 70% growth inhibition rate) | weed control effect, Bidens pilosa (level) [1]: 7 (Level 7: above 70% growth inhibition rate) | weed control effect, Digitaria sanguinalis (level) [1]: 7 (Level 7: above 70% growth inhibition rate) | weed control effect, Echinochloa crus-galli (level) [1]: 8 (Level 8: above 80% growth inhibition rate) | weed control effect, Rorippa indica (level) [1]: 10 | weed control effect, Setaria viridis (level) [1]: 6 (Level 6: above 60% growth inhibition rate) | effect on crop, corn (level) [2]: 0 | effect on crop, rice (level) [2]: 3 (Level 3: above 20% growth inhibition rate) | effect on crop, wheat (level) [2]: 0

C#CCOCc1c(S(C)(=O)=O)ccc(C(=O)c2cnn(C)c2OC(=O)c2cnn(C)c2)c1Cl [Compound 61]
weed control effect, Abutilon theophrasti (level) [1]: 7 (Level 7: above 70% growth inhibition rate) | weed control effect, Bidens pilosa (level) [1]: 7 (Level 7: above 70% growth inhibition rate) | weed control effect, Digitaria sanguinalis (level) [1]: 7 (Level 7: above 70% growth inhibition rate) | weed control effect, Echinochloa crus-galli (level) [1]: 10 | weed control effect, Rorippa indica (level) [1]: 10 | weed control effect, Setaria viridis (level) [1]: 5 (Level 5: above 50% growth inhibition rate) | effect on crop, corn (level) [2]: 0 | effect on crop, rice (level) [2]: 3 (Level 3: above 20% growth inhibition rate) | effect on crop, wheat (level) [2]: 0

COCCCOCc1c(S(C)(=O)=O)ccc(C(=O)c2cnn(C)c2OC(=O)c2cnn(C)c2)c1Cl [Compound 62]
weed control effect, Abutilon theophrasti (level) [1]: 7 (Level 7: above 70% growth inhibition rate) | weed control effect, Bidens pilosa (level) [1]: 7 (Level 7: above 70% growth inhibition rate) | weed control effect, Digitaria sanguinalis (level) [1]: 7 (Level 7: above 70% growth inhibition rate) | weed control effect, Echinochloa crus-galli (level) [1]: 10 | weed control effect, Rorippa indica (level) [1]: 10 | weed control effect, Setaria viridis (level) [1]: 7 (Level 7: above 70% growth inhibition rate) | effect on crop, corn (level) [2]: 0 | effect on crop, rice (level) [2]: 3 (Level 3: above 20% growth inhibition rate) | effect on crop, wheat (level) [2]: 0

Cc1nn(C)c(OC(=O)c2cnn(C)c2)c1C(=O)c1ccc(S(C)(=O)=O)c(COCC(F)(F)F)c1Cl [Compound 63]
weed control effect, Abutilon theophrasti (level) [1]: 7 (Level 7: above 70% growth inhibition rate) | weed control effect, Bidens pilosa (level) [1]: 7 (Level 7: above 70% growth inhibition rate) | weed control effect, Digitaria sanguinalis (level) [1]: 10 | weed control effect, Echinochloa crus-galli (level) [1]: 10 | weed control effect, Rorippa indica (level) [1]: 10 | weed control effect, Setaria viridis (level) [1]: 10 | effect on crop, corn (level) [2]: 1 (Level 1: above 1-10% growth inhibition rate) | effect on crop, rice (level) [2]: 6 (Level 6: above 60% growth inhibition rate) | effect on crop, wheat (level) [2]: 0

Cc1nn(C)c(OC(=O)c2cnn(C)c2)c1C(=O)c1ccc(S(C)(=O)=O)c(COCC(F)F)c1Cl [Compound 64]
weed control effect, Abutilon theophrasti (level) [1]: 5 (Level 5: above 50% growth inhibition rate) | weed control effect, Bidens pilosa (level) [1]: 5 (Level 5: above 50% growth inhibition rate) | weed control effect, Digitaria sanguinalis (level) [1]: 9 (Level 9: above 90% growth inhibition rate) | weed control effect, Echinochloa crus-galli (level) [1]: 10 | weed control effect, Rorippa indica (level) [1]: 10 | weed control effect, Setaria viridis (level) [1]: 10 | effect on crop, corn (level) [2]: 2 (Level 2: above 10% growth inhibition rate) | effect on crop, rice (level) [2]: 3 (Level 3: above 20% growth inhibition rate) | effect on crop, wheat (level) [2]: 0

Cc1nn(C)c(OC(=O)c2cnn(C)c2)c1C(=O)c1ccc(S(C)(=O)=O)c(COCC(F)(F)C(F)F)c1Cl [Compound 65]
weed control effect, Abutilon theophrasti (level) [1]: 6 (Level 6: above 60% growth inhibition rate) | weed control effect, Bidens pilosa (level) [1]: 7 (Level 7: above 70% growth inhibition rate) | weed control effect, Digitaria sanguinalis (level) [1]: 7 (Level 7: above 70% growth inhibition rate) | weed control effect, Echinochloa crus-galli (level) [1]: 10 | weed control effect, Rorippa indica (level) [1]: 10 | weed control effect, Setaria viridis (level) [1]: 6 (Level 6: above 60% growth inhibition rate) | effect on crop, corn (level) [2]: 0 | effect on crop, rice (level) [2]: 3 (Level 3: above 20% growth inhibition rate) | effect on crop, wheat (level) [2]: 0

Cn1cc(C(=O)Oc2c(C(=O)c3ccc(S(C)(=O)=O)c(COCC(F)(F)F)c3Cl)cnn2C)cn1 [Compound 67]
weed control effect, Abutilon theophrasti (level) [1]: 7 (Level 7: above 70% growth inhibition rate) | weed control effect, Bidens pilosa (level) [1]: 7 (Level 7: above 70% growth inhibition rate) | weed control effect, Digitaria sanguinalis (level) [1]: 7 (Level 7: above 70% growth inhibition rate) | weed control effect, Echinochloa crus-galli (level) [1]: 10 | weed control effect, Rorippa indica (level) [1]: 10 | weed control effect, Setaria viridis (level) [1]: 9 (Level 9: above 90% growth inhibition rate) | effect on crop, corn (level) [2]: 1 (Level 1: above 1-10% growth inhibition rate) | effect on crop, rice (level) [2]: 3 (Level 3: above 20% growth inhibition rate) | effect on crop, wheat (level) [2]: 0

C#CCOCc1c(S(C)(=O)=O)ccc(C(=O)c2c(C)nn(C)c2OC(=O)c2cnn(C)c2)c1Cl [Compound 69]
weed control effect, Abutilon theophrasti (level) [1]: 7 (Level 7: above 70% growth inhibition rate) | weed control effect, Bidens pilosa (level) [1]: 7 (Level 7: above 70% growth inhibition rate) | weed control effect, Digitaria sanguinalis (level) [1]: 6 (Level 6: above 60% growth inhibition rate) | weed control effect, Echinochloa crus-galli (level) [1]: 10 | weed control effect, Rorippa indica (level) [1]: 10 | weed control effect, Setaria viridis (level) [1]: 6 (Level 6: above 60% growth inhibition rate) | effect on crop, corn (level) [2]: 0 | effect on crop, rice (level) [2]: 3 (Level 3: above 20% growth inhibition rate) | effect on crop, wheat (level) [2]: 0

CCOCc1c(S(C)(=O)=O)ccc(C(=O)c2c(C3CC3)nn(C)c2OC(=O)c2cnn(C)c2)c1Cl [Compound 70]
weed control effect, Abutilon theophrasti (level) [1]: 7 (Level 7: above 70% growth inhibition rate) | weed control effect, Bidens pilosa (level) [1]: 7 (Level 7: above 70% growth inhibition rate) | weed control effect, Digitaria sanguinalis (level) [1]: 10 | weed control effect, Echinochloa crus-galli (level) [1]: 10 | weed control effect, Rorippa indica (level) [1]: 10 | weed control effect, Setaria viridis (level) [1]: 10 | effect on crop, corn (level) [2]: 3 (Level 3: above 20% growth inhibition rate) | effect on crop, rice (level) [2]: 3 (Level 3: above 20% growth inhibition rate) | effect on crop, wheat (level) [2]: 0

Cn1cc(C(=O)Oc2c(C(=O)c3ccc(S(C)(=O)=O)c(COCC(F)(F)C(F)F)c3Cl)c(C3CC3)nn2C)cn1 [Compound 71]
weed control effect, Abutilon theophrasti (level) [1]: 6 (Level 6: above 60% growth inhibition rate) | weed control effect, Bidens pilosa (level) [1]: 8 (Level 8: above 80% growth inhibition rate) | weed control effect, Digitaria sanguinalis (level) [1]: 7 (Level 7: above 70% growth inhibition rate) | weed control effect, Echinochloa crus-galli (level) [1]: 8 (Level 8: above 80% growth inhibition rate) | weed control effect, Rorippa indica (level) [1]: 10 | weed control effect, Setaria viridis (level) [1]: 5 (Level 5: above 50% growth inhibition rate) | effect on crop, corn (level) [2]: 0 | effect on crop, rice (level) [2]: 3 (Level 3: above 20% growth inhibition rate) | effect on crop, wheat (level) [2]: 0

COCc1c(S(C)(=O)=O)ccc(C(=O)c2c(C3CC3)nn(C)c2OC(=O)c2cnn(C)c2)c1Cl [Compound 72]
weed control effect, Abutilon theophrasti (level) [1]: 7 (Level 7: above 70% growth inhibition rate) | weed control effect, Bidens pilosa (level) [1]: 7 (Level 7: above 70% growth inhibition rate) | weed control effect, Digitaria sanguinalis (level) [1]: 8 (Level 8: above 80% growth inhibition rate) | weed control effect, Echinochloa crus-galli (level) [1]: 10 | weed control effect, Rorippa indica (level) [1]: 10 | weed control effect, Setaria viridis (level) [1]: 8 (Level 8: above 80% growth inhibition rate) | effect on crop, corn (level) [2]: 2 (Level 2: above 10% growth inhibition rate) | effect on crop, rice (level) [2]: 3 (Level 3: above 20% growth inhibition rate) | effect on crop, wheat (level) [2]: 0

CCOCc1c(S(C)(=O)=O)ccc(C(=O)c2c(C)nn(C)c2OC(=O)c2cnn(C)c2)c1Cl [Compound 73]
weed control effect, Abutilon theophrasti (level) [1]: 7 (Level 7: above 70% growth inhibition rate) | weed control effect, Bidens pilosa (level) [1]: 7 (Level 7: above 70% growth inhibition rate) | weed control effect, Digitaria sanguinalis (level) [1]: 9 (Level 9: above 90% growth inhibition rate) | weed control effect, Echinochloa crus-galli (level) [1]: 10 | weed control effect, Rorippa indica (level) [1]: 10 | weed control effect, Setaria viridis (level) [1]: 9 (Level 9: above 90% growth inhibition rate) | effect on crop, corn (level) [2]: 0 | effect on crop, rice (level) [2]: 3 (Level 3: above 20% growth inhibition rate) | effect on crop, wheat (level) [2]: 0
